According to patent US12643891B2, “SPAK/OSR inhibitors and methods of using same” (YALE UNIVERSITY, priority 2019, dated 2026):

How the values were obtained:
[1] = biological target: T1, SPAK (Homo sapiens, UniProt Q9UEW8); test: In vitro SPAK ELISA assay monitoring NKCC1 phosphorylation (T^PNKCC1 antibody); type: biochemical; conditions: analogues of (6a)
T1 construct: GST (N, cleaved yes); made in house; host or cells: E. coli EcAR7 with Sep-OTS
Protocol: The GlaxoSmithKline published kinase inhibitor set, PKIS (Dranchak, et al., 2013, Plos One 8), was used to evaluate potential SPAK drug inhibitor candidates. The pilot inhibitor screen tested the capability of 320 compounds to inhibit the kinase activity of purified co-expressed SP382 WNK1 (1-661)/WT SPAK using an ELISA based screen monitoring a reduction in NKCC1 phosphorylation with the NKCC1 phospho-specific antibody, T^PNKCC1. 10 nL of each inhibitor compound (final concentration 20 μM) or DMSO vehicle controls were added to dry 384 well-flat bottom low volume non-binding assay plates (Corning) using an Echo 550 Acoustic dispenser (Labcyte). […] The assay plates were centrifuged at 200 g for 1 min, then incubated at RT for 30 min. Following inhibitor incubation, the kinase reaction was initiated with 1 μL of 50 μM ATP (final concentration 10 uM) or 1 μL of Kinase reaction buffer for negative controls and reacted for 1 hr at 37° C. The reaction was then quenched with 5 μL Kinase Stop buffer (100 mM Tris pH 8, 300 mM NaCl, 40 mM EDTA) and incubated for 1 min with shaking at 450 rpm. 2 μL of each quenched reaction was added to 18 μL TBS (50 mM Tris pH 8, 150 mM NaCl) in white 384-well Nunc Maxisorp plates (Thermo Scientific) using a PlateMate Plus (Thermo Scientific). The plate was shaken for 1 min at 450 rpm, sealed and incubated at 4° C. overnight to allow the protein contents of the reaction to bind to the Maxisorp plate. The next morning the solution was removed, and the plates were then subjected to 3 washes in TBST (50 mM Tris pH 7.5, 150 mM NaCl. 0.05% Tween 20) for 5 min each wash with shaking at 400 rpm. The plates were blocked with TBST buffer containing 3% BSA (w/v) at RT for 2 hrs at RT. The blocking buffer was removed, and the plates were immunoblotted with 1:50,000 dilution of T^PNKCC1 in blocking buffer for 2 hrs at RT. The plates were then subjected to 3 washes in TBST for 5 min each wash with shaking at 400 rpm, followed by incubating with 1:10,000 dilution of 2° DAR-HPR antibody in blocking buffer for 1 hr at RT. The plates were washed again 3 times in TBST for 5 min each wash with shaking at 400 rpm. Signal was detected by SuperSignal ELISA Pico Chemiluminescent substrate (ThermoScientific), and read on an EnVision multi-label plate reader (Perkin-Elmer).

[2] = test system: GBM612 cells; test: On target activity in GBM612 cells (Western blot); type: cell-based, human; conditions: on target activity in GBM cells
[3] = biological target: T1, SPAK; test: In vitro SPAK ELISA assay monitoring NKCC1 phosphorylation (T^PNKCC1 antibody); type: biochemical; conditions: on target activity in vitro; read-out: IC50 In vitro
[4] = test system: pancreatic cancer cells; test: Pancreatic cancer cell migration in vitro; type: cell-based; conditions: FIG. 36
[5] = test system: mDCT15 cells; test: Cell volume of mDCT15 cells by microscopic imaging; type: cell-based, mouse; conditions: 40 μM, four-hour time course
Protocol: FIGS. 12A-12F illustrate the finding that (7a) depletes phosphorylated NKCC1 and reduces cell volume in mDCT15 cells. FIG. 12A: Structures of (7a) and analog (7b). FIG. 12B: In vitro dose-dependent inhibition comparing (7a) and (7b) evaluated by western blot using T^PNKCC1. FIG. 12C: Western blot analysis of NKCC1 phospho-depletion in mDCT15 cells under various conditions. FIG. 12D: mDCT15 cells were incubated with 40 μM (7a), 40 μM Cabozantinib (XL-184), or equivalent volume of DMSO vehicle for 1 hr, 2 hr, 3 hr, and 4 hr. NKCC1 phosphorylation was monitored using the T^PNKCC1 antibody and compared to total NKCC1. FIG. 12E: HEK 293 induced to express KCC were incubated with 40 μM (7a), 40 μM Cabozantinib (XL-184), or equivalent volume of DMSO vehicle for 1 hr, and 2 hr time points. KCC phosphorylation was monitored using the T^PKCC antibody and compared to total KCC using C-Myc antibody. FIG. 12F: mDCT15 cells were incubated with 40 μM (7a), 40 μM Cabozantinib (XL-184), or equivalent volume of DMSO vehicle for a 1 hr, 2 hr, 3 hr, and 4 hr time course. After incubation the cells were imaged using 20× bright field microscopy. 1 hr and 4 hr time points are shown.
FIG. 13 comprises images of mDCT15 cells incubated with 40 μM (7a) 40 μM, Cabozantinib (XL-184), or equivalent volume of DMSO vehicle for a 1 hr, 2 hr, 3 hr, and 4 hr time course (partially shown in FIG. 12F). […]

[6] = test system: NKCC1 phosphorylation in mDCT15 cells; test: NKCC1 phosphorylation in mDCT15 cell lysates (T^PNKCC1 immunoblot); type: cell-based, mouse; conditions: 40 μM, span of 4 hrs
Protocol: Mouse distal convoluted tubule (mDCT15) cells (Naguro, et al., 2012, Nature comm. 3:1285) were cultured in DMEM/Ham's F-12 media supplemented with 1% PSN and 5% FBS. Before each set of experiments 2×10^5 cells/well were plated in 24-well plates treated with 100 ug/mL poly-D-lysine and grown at 37° C. in 5% CO2 to ˜95% confluency. […] […] […] All media was removed and 100 μL of cell culture lysis buffer (100 mM Tris/HCl pH 7.4, 300 mM NaCl, 5 mM EDTA, 5 mM EGTA, 2 mM DTT, 10% glycerol, 2% triton X-100, Roche protease inhibitor, and phosphatase inhibitor cocktail 3 (Sigma-Aldrich St. Louis, MO)) was added to each well, transferred to a clean 1.5 mL Eppendorf tube, and incubated on ice for a minimum of 10 min. The cell lysates were centrifuged at 21,000 G for 10 min. The clarified lysate was stored at −80° C.
Protein samples were subjected to electrophoresis on polyacrylamide gels and transferred to PVDF membranes. The membranes were incubated overnight in TBST blocking buffer containing 5% milk (w/v) (for the antibodies raised in sheep) or 3% BSA (w/v) (for all other antibodies). […] Signal was detected by enhanced chemiluminescence (Bio-rad) imaged on a ChemiDoc™ XRS+ CCD camera.

Structure (SMILES) | SPAK inhibition [1] | IC50 [3] [µM] | Activity in GMB612, 0.2 μM [2] | Activity in GMB612, 2 μM [2] | pancreatic cancer cell migration [4] | Cell volume change, mDCT15 cells [5] | NKCC1 phosphorylation over time without osmotic triggers [6]
COc1ccc(Nc2ncc(C#N)c(Nc3cccc4c3C(=O)NC4)n2)cc1N1CCN(C)CC1 [(6b)] | measurable SPAK inhibition | 0.05 | Yes | Yes |  |  | 
Nc1ccn([C@@H]2O[C@H](CO)[C@@H](O)C2(F)F)c(=O)n1 [Gemcitabine, reference compound] |  |  |  |  | does not |  | 
COc1ccc(Nc2ncc(C#N)c(Nc3ccccc3-c3nnn[nH]3)n2)cc1N1CCN(C)CC1 [(6f), 4-((2-(1H-tetrazol-5-yl)phenyl)amino)-2-((4-methoxy-3-(4-methylpiperazin-1-yl)phenyl)amino)pyrimidine-5-carbonitrile] | measurable SPAK inhibition | 3.5 | No | Yes |  |  | 
COc1ccc(Nc2ncc(C#N)c(Nc3ccccc3-c3nc[nH]n3)n2)cc1N1CCN(C)CC1 [(6g), 4-((2-(1H-1,2,4-triazol-3-yl)phenyl)amino)-2-((4-methoxy-3-(4-methylpiperazin-1-yl)phenyl)amino)pyrimidine-5-carbonitrile] |  | 12 | No | No |  |  | 
COc1cc2nccc(Oc3ccc(NC(=O)C4(C(=O)Nc5ccc(F)cc5)CC4)cc3)c2cc1OC [XL-184, Cabozantinib malate] |  |  |  |  |  | neither XL-184 nor Vehicle had any detectable change | no discernable effect on NKCC1 phosphorylation

Further compounds by falling IC50 [3], results first:

SPAK inhibition [1] | IC50 [3] [µM] | Structure (SMILES) | Activity in GMB612, 0.2 μM [2] | Activity in GMB612, 2 μM [2] | pancreatic cancer cell migration [4] | Cell volume change, mDCT15 cells [5] | NKCC1 phosphorylation over time without osmotic triggers [6]
 | 9 | COc1ccc(Nc2ncc(C#N)c(Nc3ccccc3-c3ncco3)n2)cc1N1CCN(C)CC1 [(6c), 2-((4-methoxy-3-(4-methylpiperazin-1-yl)phenyl)amino)-4-((2-(oxazol-2-yl)phenyl)amino)pyrimidine-5-carbonitrile] | No | No |  |  | 
measurable SPAK inhibition | 5.2 | CNC(=O)c1ccccc1Nc1nc(Nc2ccc(OC)c(N3CCN(C)CC3)c2)ncc1C#N [(6d), 2-((5-cyano-2-((4-methoxy-3-(4-methylpiperazin-1-yl)phenyl)amino)pyrimidin-4-yl)amino)-N-methylbenzamide] | No | Yes |  |  | 
measurable SPAK inhibition | 2.6 | CONC(=O)c1ccccc1Nc1nc(Nc2ccc(OC)c(N3CCN(C)CC3)c2)ncc1C#N [(6e), 2-((5-cyano-2-((4-methoxy-3-(4-methylpiperazin-1-yl)phenyl)amino)pyrimidin-4-yl)amino)-N-methoxybenzamide] | No | Yes |  |  | 
